The numbers were not newly measured in paper PMC7530097 (Chemical communications (Cambridge, England), 2020), which cites them from elsewhere.

The target of data set [1] is Group-II agr subgroup of S. aureus (Staphylococcus aureus, UniProt O33587). The following applies: read-out: IC50 (95% CI) Group-II; β-lactamase reporter cell assay; ref [6].
The target in data set [2] is Group-III agr subgroup of S. aureus (Staphylococcus aureus, UniProt O33590). The following applies: read-out: IC50 (95% CI) Group-III; β-lactamase reporter cell assay; ref [6].
The subject of another data set is AgrC. The settings on record: ref [25].

AIP-I: the values for the IC50 in data set [1] and in data set [2] were 25 nM and 3 nM, respectively.
Regarding Solonamide B, the “inhibition of AgrC” value in the data set with AgrC is listed as “competitively inhibit AgrC”.

What is called IC50 is the point on the concentration scale where inhibition reaches its midpoint.
